≈ marks a conversion by molar mass, not a printed value. Values belong to the molecule of their own block, whether it stands above or below them. Calls of active or inactive are those of the source. No cut-off for these calls is given here.
Assays:
[1] = test system: Candida albicans; experiment: Compound was evaluated for inhibitory activity against Candida albicans; IA= Inactive; type: functional, organism-based
[2] = test system: Saccharomyces cerevisiae; experiment: Compound was evaluated for inhibitory activity against Saccharomyces cerevisiae; IA= Inactive; type: functional, organism-based
[3] = test system: Candida albicans; experiment: Compound was evaluated for inhibitory activity against Candida albicans; type: functional
[4] = test system: Saccharomyces cerevisiae; experiment: Compound was evaluated for inhibitory activity against Saccharomyces cerevisiae; type: functional
[5] = test system: Candida albicans; experiment: microbe, parasite or virus in culture
[6] = test system: Saccharomyces cerevisiae; experiment: microbe, parasite or virus in culture
[7] = test system: Saccharomyces cerevisiae; experiment: Compound was evaluated for inhibitory activity against Saccharomyces cerevisiae; 3.2-4; type: functional
[8] = test system: Candida albicans; experiment: Compound was evaluated for inhibitory activity against Candida albicans; 3.2-4; type: functional
[9] = test system: Saccharomyces cerevisiae; experiment: Compound was evaluated for inhibitory activity against Saccharomyces cerevisiae; IA = Inactive; type: functional, organism-based
[10] = test system: Candida albicans; experiment: Compound was evaluated for inhibitory activity against Candida albicans; 2-3.2; type: functional
[11] = test system: Saccharomyces cerevisiae; experiment: Compound was evaluated for inhibitory activity against Saccharomyces cerevisiae; 2-3.2; type: functional
[12] = test system: Candida albicans; experiment: Compound was evaluated for inhibitory activity against Candida albicans; 4-6.4; type: functional
[13] = test system: Saccharomyces cerevisiae; experiment: Compound was evaluated for inhibitory activity against Saccharomyces cerevisiae; 4-6.4; type: functional

SMILES: Clc1ccc(COC(Cn2ccnc2)c2ccc(Cl)cc2Cl)c(Cl)c1 (centres undefined) [MICONAZOLE]
MIC [3]: < 1.6 µg/mL
MIC [4]: < 1.6 µg/mL
MIC [5]: 1.6 µg/mL (≈ 3.84 µM)
MIC [6]: 1.6 µg/mL (≈ 3.84 µM)

SMILES: CCC(=O)O [PROPIONIC ACID]
MIC [7]: 3.2 µg/mL (≈ 43.2 µM)
MIC [8]: 3.2 µg/mL (≈ 43.2 µM)

SMILES: Cc1c(Cc2c(C)n(C)n(-c3ccccc3)c2=O)c(=O)n(-c2ccccc2)n1C
MIC [1]: inactive
MIC [9]: inactive

SMILES: O=C(Nc1ccccc1)c1ccccc1O [SALICYLANILIDE]
MIC [10]: 2 µg/mL (≈ 9.38 µM)
MIC [11]: 2 µg/mL (≈ 9.38 µM)

SMILES: BrC1[C@H]2C[C@@H]3C[C@@H](C[C@H]1C3)C2 (some centres undefined)
MIC [12]: 4 µg/mL (≈ 18.6 µM)
MIC [13]: 4 µg/mL (≈ 18.6 µM)

SMILES: [Cl-].[Cl-].c1ccc(-c2nn(-c3ccccc3)[n+](-c3ccc(-c4ccc(-[n+]5nc(-c6ccccc6)nn5-c5ccccc5)cc4)cc3)n2)cc1 [NEOTETRAZOLIUM CHLORIDE]
MIC [3]: < 1.6 µg/mL
MIC [4]: < 1.6 µg/mL

SMILES: BrCCc1c[nH]c2ccccc12
MIC [10]: 2 µg/mL (≈ 8.92 µM)
MIC [11]: 2 µg/mL (≈ 8.92 µM)

The remaining lines, values ahead:

MIC [1]: inactive
MIC [2]: inactive
SMILES: CC1(CBr)C2CCC1(CBr)C(=O)C2 (centres undefined)

MIC [1]: inactive
MIC [2]: inactive
SMILES: Brc1sc(Br)c(Br)c1Br

MIC [10]: 2 µg/mL (≈ 9.6 µM)
MIC [11]: 2 µg/mL (≈ 9.6 µM)
SMILES: O=c1sc2sc(=O)sc2s1

MIC [1]: inactive
MIC [9]: inactive
SMILES: Oc1c(I)cc(I)c2cccnc12

Reference: ChEMBL document CHEMBL1130585, “New antifungals selected by molecular topology” (1998)
